SMILES strings stand for the structures. Where a name gives a salt, the structure may show the parent alone.

The values below come from patent US10759785B2, “Compounds” (ENTERPRISE THERAPEUTICS LIMITED, priority 2016, dated 2020).

The test addresses T1, ENaC (Homo sapiens, UniProt P37088+P51168+P51170).
T1 construct: host or cells: primary human bronchial epithelial cells (HBECs) differentiated at an air-liquid interface
T1 sequence (P37088 1-669): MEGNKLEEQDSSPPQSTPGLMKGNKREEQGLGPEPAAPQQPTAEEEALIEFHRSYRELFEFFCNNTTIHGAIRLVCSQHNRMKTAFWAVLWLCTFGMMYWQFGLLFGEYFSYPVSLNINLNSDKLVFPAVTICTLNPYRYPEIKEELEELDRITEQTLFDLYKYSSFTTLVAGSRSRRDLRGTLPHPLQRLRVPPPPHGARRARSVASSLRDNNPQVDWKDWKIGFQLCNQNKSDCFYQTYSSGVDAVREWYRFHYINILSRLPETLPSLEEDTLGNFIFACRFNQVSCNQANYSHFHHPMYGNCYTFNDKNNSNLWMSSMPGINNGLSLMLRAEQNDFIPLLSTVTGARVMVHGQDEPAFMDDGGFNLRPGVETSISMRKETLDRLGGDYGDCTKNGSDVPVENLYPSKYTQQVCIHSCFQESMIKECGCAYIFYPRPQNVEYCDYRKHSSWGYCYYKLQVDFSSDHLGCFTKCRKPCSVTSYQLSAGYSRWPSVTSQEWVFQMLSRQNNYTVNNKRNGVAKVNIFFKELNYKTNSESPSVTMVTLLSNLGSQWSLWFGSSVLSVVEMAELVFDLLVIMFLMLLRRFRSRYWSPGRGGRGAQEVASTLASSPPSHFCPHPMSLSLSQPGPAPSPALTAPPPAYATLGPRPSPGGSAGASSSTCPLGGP
T1 sequence (P51168 1-640): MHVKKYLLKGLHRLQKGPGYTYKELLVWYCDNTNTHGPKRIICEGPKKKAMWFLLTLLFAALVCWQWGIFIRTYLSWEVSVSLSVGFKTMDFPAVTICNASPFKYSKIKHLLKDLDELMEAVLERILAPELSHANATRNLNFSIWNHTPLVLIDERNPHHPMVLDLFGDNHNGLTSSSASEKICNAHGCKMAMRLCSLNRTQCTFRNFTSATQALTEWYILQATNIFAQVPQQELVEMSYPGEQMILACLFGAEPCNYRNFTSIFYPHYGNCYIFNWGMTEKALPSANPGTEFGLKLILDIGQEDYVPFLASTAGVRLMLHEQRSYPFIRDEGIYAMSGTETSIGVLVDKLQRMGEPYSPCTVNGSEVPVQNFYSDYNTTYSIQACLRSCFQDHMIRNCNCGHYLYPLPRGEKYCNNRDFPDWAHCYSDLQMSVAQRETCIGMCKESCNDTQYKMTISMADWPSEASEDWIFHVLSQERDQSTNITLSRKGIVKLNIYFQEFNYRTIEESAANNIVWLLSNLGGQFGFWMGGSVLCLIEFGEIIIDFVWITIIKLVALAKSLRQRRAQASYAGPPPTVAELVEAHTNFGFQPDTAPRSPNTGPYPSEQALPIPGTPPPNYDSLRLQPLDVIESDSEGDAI
T1 sequence (P51170 1-649): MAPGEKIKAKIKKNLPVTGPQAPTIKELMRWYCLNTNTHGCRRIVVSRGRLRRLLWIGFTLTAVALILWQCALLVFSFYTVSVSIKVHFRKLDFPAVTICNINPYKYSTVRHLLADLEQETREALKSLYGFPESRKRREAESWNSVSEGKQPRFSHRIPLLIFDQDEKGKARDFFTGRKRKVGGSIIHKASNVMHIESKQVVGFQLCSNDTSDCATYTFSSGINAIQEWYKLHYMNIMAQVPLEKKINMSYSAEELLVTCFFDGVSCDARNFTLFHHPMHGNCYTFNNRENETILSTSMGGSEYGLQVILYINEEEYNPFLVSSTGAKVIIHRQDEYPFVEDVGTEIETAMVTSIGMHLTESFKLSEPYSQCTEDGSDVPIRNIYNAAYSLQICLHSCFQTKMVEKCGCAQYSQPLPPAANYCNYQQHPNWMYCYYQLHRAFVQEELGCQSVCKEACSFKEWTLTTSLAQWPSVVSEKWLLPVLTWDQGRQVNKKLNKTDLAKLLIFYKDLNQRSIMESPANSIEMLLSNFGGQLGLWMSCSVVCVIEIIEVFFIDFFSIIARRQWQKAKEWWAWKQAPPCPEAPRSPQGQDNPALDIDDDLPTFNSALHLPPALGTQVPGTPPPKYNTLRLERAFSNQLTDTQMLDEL
As to the kind of experiment: Short circuit current assay to determine ENaC blocker potency in human bronchial epithelial cells. The class given is cell-based. Particulars: 50% inhibition of total amiloride-sensitive ISC, HBECs, apical addition; read-out: Averages. ENaC Ic50 μm Avg. On the procedure:
Example 27—Short Circuit Current Assay to Determine ENaC Blocker Potency in Human Bronchial Epithelial Cells
Human bronchial epithelial cells (HBECs) (Lonza, UK) were cultured using a modification of the method described by Coote et al, (2008). Cells were seeded into plastic T-75 flasks and grown in Bronchial Epithelial Cell Growth Medium (BEGM) (Lonza, UK) supplemented with bovine pituitary extract (52 ng/mL), hydrocortisone (0.5 μg/mL), human recombinant Epidermal Growth Factor (0.5 ng/mL), epinephrine (0.5 ng/mL), transferrin (10 ng/mL), insulin (5 ng/mL), retinoic acid (0.1 ng/mL), triiodothyronine (6.5 ng/mL), gentamycin (50 μg/mL) and amphotericin-B (50 ng/mL). Medium was changed every 48 hours until cells were 90% confluent. Cells were then passaged and seeded (8.25×10^5 cells/insert) onto polycarbonate Snapwell™ inserts (Costar, UK) in differentiation media containing 50% DMEM in BGEM with the same supplements as above but without triiodothyronine and a final retinoic acid concentration of 50 nM (all-trans retinoic acid; Sigma-Aldrich, UK). Cells were maintained submerged for the first 7 days in culture after which time they were exposed to an apical air interface for the remainder of the culture period. From the first day of establishment of an ALI, HBEC were fed with a DMEM:HAMS F-12 (1:1) media containing 2% Ultroser G (Pall BioSepra, France) with gentamycin (50 μg/mL) and amphotericin B (50 ng/mL). Cells were used for short-circuit current assay between days 14-21 after the establishment of the ALI. At all stages of culture, cells were maintained at 37′C in 5% CO2 in an air incubator.
Short-Circuit Current (ISC) Measurements
Snapwell inserts were mounted in Costar Vertical Diffusion Chambers (Costar, UK) and were bathed with continuously gassed Ringer solution (5% CO2 in O2; pH 7.4) maintained at 37° C. containing (in mM): 120 NaCl, 25 NaHCO3, 3.3 KH2PO4, 0.8 K2HPO4, 1.2 CaCl2, 1.2 MgCl2 and 10 glucose. The solution osmolarity was always between 280-300 mOsm/kg H2O for all physiological salt solutions used. Cells were voltage clamped to 0 mV (model EVC4000, WPI). Transepithelial resistance (RT) was measured by applying a 2 mV pulse at 30 s intervals and calculating RT by Ohm's law. Data were recorded using a PowerLab workstation (ADInstruments, UK).
ENaC blocker compounds were added to the apical chamber from a 1000-fold stock solution (prepared in DMSO) to achieve a cumulative concentration response in terms of the inhibition of the basal ISC. At the completion of the concentration response, a supra-maximal concentration of amiloride (10 μM) was added. The concentration of test compound that induced a 50% inhibition of the total amiloride-sensitive ISC (IC50) was calculated using GraphPad Prism v6.05.
For orientation: IC50 means the concentration that inhibits the measured activity by half. Consider `CCn1c(CNC(=O)c2nc(Br)cnc2N)[n+](CC)c2ccc(OC)cc21.O=C[O-]` [Example 2, 2-{[(3-amino-6-bromopyrazin-2-yl)formamido]methyl}-1,3-diethyl-6-methoxy-1H-1,3-benzodiazol-3-ium formate], for which the IC50 worked out at 1 nM.
The figure for `CCn1c(CNC(=O)c2nc(Br)cnc2N)[n+](CCO)c2ccc(OC)cc21.O=C[O-]` [Example 3, 2-{[(3-amino-6-bromopyrazin-2-yl)formamido]methyl}-1-ethyl-3-(2-hydroxyethyl)-6-methoxy-1H-1,3-benzodiazol-3-ium formate] is 1 nM; for `CCn1c(CNC(=O)c2nc(Br)cnc2N)[n+](CCOCCOCCO)c2ccc(OC)cc21.O=C[O-]` [Example 4, 2-{[(3-amino-6-bromopyrazin-2-yl)formamido]methyl}-1-ethyl-3-{2-[2-(2-hydroxyethoxy)ethoxy]ethyl}-6-methoxy-1H-1,3-benzodiazol-3-ium formate] it is 4 nM.
To `CCn1c(CNC(=O)c2nc(Cl)cnc2N)[n+](C)c2ccc(OC)cc21.[I-]` [Example 5, 2-{[(3-amino-6-chloropyrazin-2-yl)formamido]methyl}-1-ethyl-6-methoxy-3-methyl-1H-1,3-benzodiazol-3-ium iodide] belongs 2 nM; to `CCn1c(CNC(=O)c2nc(C)cnc2N)[n+](C)c2ccc(OC)cc21.[I-]` [Example 7, 2-{[(3-amino-6-methylpyrazin-2-yl)formamido]methyl}-1-ethyl-6-methoxy-3-methyl-1H-1,3-benzodiazol-3-ium iodide], 4 nM.
As to `CCc1cnc(N)c(C(=O)NCc2n(CC)c3cc(OC)ccc3[n+]2C)n1.[I-]` [Example 8, 2-{[(3-amino-6-ethylpyrazin-2-yl)formamido]methyl}-1-ethyl-6-methoxy-3-methyl-1H-1,3-benzodiazol-3-ium iodide], the IC50 was 224 nM.
The figure for `CCn1c(CNC(=O)c2nc(SC)cnc2N)[n+](C)c2ccc(OC)cc21.[I-]` [Example 9, 2-({[3-amino-6-(methylsulfanyl)pyrazin-2-yl]formamido}methyl)-1-ethyl-6-methoxy-3-methyl-1H-1,3-benzodiazol-3-ium iodide] is 74 nM.
For `CCn1c(CNC(=O)c2nc(Br)cnc2N)[n+](C)c2ccc(Cl)cc21.O=CO.O=C[O-]` [Example 11, 2-{[(3-amino-6-bromopyrazin-2-yl)formamido]methyl}-6-chloro-1-ethyl-3-methyl-1H-1,3-benzodiazol-3-ium formic acid formate], the IC50 was found to be 2 nM.
With `CCn1c(CNC(=O)c2nc(Br)cnc2N)[n+](C)c2ccc(F)cc21.O=C[O-]` [Example 12, 2-{[(3-amino-6-bromopyrazin-2-yl)formamido]methyl}-1-ethyl-6-fluoro-3-methyl-1H-1,3-benzodiazol-3-ium formate], the IC50 worked out at 19 nM.
To `CCn1c(CNC(=O)c2nc(Br)cnc2N)[n+](C)c2ccc(C(F)(F)F)cc21.[I-]` [Example 13, 2-{[(3-amino-6-bromopyrazin-2-yl)formamido]methyl}-1-ethyl-3-methyl-6-(trifluoromethyl)-1H-1,3-benzodiazol-3-ium iodide] belongs 4 nM; to `CCn1c(CNC(=O)c2nc(Br)cnc2N)[n+](C)c2ccc(OC(F)(F)F)cc21.O=C[O-]` [Example 14, 2-{[(3-amino-6-bromopyrazin-2-yl)formamido]methyl}-1-ethyl-3-methyl-6-(trifluoromethoxy)-1H-1,3-benzodiazol-3-ium formate], 3 nM.
To `CCn1c(CNC(=O)c2nc(Br)cnc2N)[n+](CC)c2ccc(C(=O)OC)cc21.[I-]` [Example 15, 2-{[(3-amino-6-bromopyrazin-2-yl)formamido]methyl}-1,3-diethyl-6-(methoxycarbonyl)-1H-1,3-benzodiazol-3-ium iodide] belongs 2 nM; to `CCn1c(CNC(=O)c2nc(Br)cnc2N)[n+](CC)c2ccc(C(=O)N[C@@H]3CCOC3=O)cc21` [Example 17, 2-{[(3-amino-6-bromopyrazin-2-yl)formamido]methyl}-1,3-diethyl-6-{[(3R)-2-oxooxolan-3-yl]carbamoyl}-1H-1,3-benzodiazol-3-ium formate], 3 nM.
As for `CCn1c(CNC(=O)c2nc(Br)cnc2N)[n+](CC)c2ccc(C(=O)N[C@H]3CCOC3=O)cc21` [Example 18, 2-{[(3-amino-6-bromopyrazin-2-yl)formamido]methyl}-1,3-diethyl-6-{[(3S)-2-oxooxolan-3-yl]carbamoyl}-1H-1,3-benzodiazol-3-ium formate], the IC50 was 4 nM.
To `CCn1c(CNC(=O)c2nc(Br)cnc2N)[n+](Cc2ccccc2)c2ccc(C(F)(F)F)cc21.O=C[O-]` [Example 19, 2-{[(3-Amino-6-bromopyrazin-2-yl)formamido]methyl}-3-benzyl-1-ethyl-6-(trifluoromethyl)-1H-1,3-benzodiazol-3-ium formate] belongs 4 nM.
